In the NIST ThermoML archive (doi:10.1016/j.jct.2015.02.011):
± gives the expanded uncertainty stated by the source.

Test: xn = mol fraction of the nth substance listed
Conditions: 100.7 kPa, Liquid; for speed of sound: Frequency=3 MHz, Sing-around technique in a fixed-path interferometer; for mass density: Vibrating tube method

CCCCCCCC[n+]1ccn(C)c1.F[P-](F)(F)(F)(F)F [1-octyl-3-methylimidazolium hexafluorophosphate] + C1CCOC1
Conditions	mass density [kg/m3]	speed of sound [m/s]
293.15 K, x1 = 0.0767	972.545 ± 1.6	1319.1 ± 2.3
293.15 K, x1 = 0.1791	1048.06 ± 1.6	1338.4 ± 2.3
293.15 K, x1 = 0.2783	1097.51 ± 1.6	1356 ± 2.4
293.15 K, x1 = 0.3996	1139.52 ± 1.7	1371.5 ± 2.4
293.15 K, x1 = 0.5198	1169.49 ± 1.7	1384.1 ± 2.5
293.15 K, x1 = 0.612	1187.49 ± 1.7	1392.2 ± 2.6
293.15 K, x1 = 0.6957	1201.25 ± 1.8	1399 ± 2.7
293.15 K, x1 = 0.7754	1212.53 ± 1.8	1405.2 ± 2.7
293.15 K, x1 = 0.8991	1227.92 ± 1.9	1414 ± 2.8
293.15 K, x1 = 1	1238.77 ± 2	1421.2 ± 2.9
298.15 K, x1 = 0.0767	967.476 ± 1.6	1297.5 ± 2.3
298.15 K, x1 = 0.1791	1043.39 ± 1.6	1320.2 ± 2.3
298.15 K, x1 = 0.2783	1092.94 ± 1.6	1339.2 ± 2.4
298.15 K, x1 = 0.3996	1135.15 ± 1.7	1355.5 ± 2.4
298.15 K, x1 = 0.5198	1165.32 ± 1.7	1368.6 ± 2.5
298.15 K, x1 = 0.612	1183.35 ± 1.7	1376.8 ± 2.6
298.15 K, x1 = 0.6957	1197.12 ± 1.8	1383.9 ± 2.7
298.15 K, x1 = 0.7754	1208.52 ± 1.8	1390.5 ± 2.7
298.15 K, x1 = 0.8991	1223.83 ± 1.9	1399.8 ± 2.8
298.15 K, x1 = 1	1234.79 ± 2	1406.5 ± 2.9
303.15 K, x1 = 0.0767	962.388 ± 1.6	1276.5 ± 2.3
303.15 K, x1 = 0.1791	1038.59 ± 1.6	1302.6 ± 2.3
303.15 K, x1 = 0.2783	1088.35 ± 1.6	1322.5 ± 2.4
303.15 K, x1 = 0.3996	1130.86 ± 1.7	1340.1 ± 2.4
303.15 K, x1 = 0.5198	1161.03 ± 1.7	1353.2 ± 2.5
303.15 K, x1 = 0.612	1179.13 ± 1.7	1361.9 ± 2.6
303.15 K, x1 = 0.6957	1193.04 ± 1.8	1369.2 ± 2.6
303.15 K, x1 = 0.7754	1204.52 ± 1.8	1376.1 ± 2.7
303.15 K, x1 = 0.8991	1219.78 ± 1.9	1385.8 ± 2.8
303.15 K, x1 = 1	1230.84 ± 2	1392.4 ± 2.9
308.15 K, x1 = 0.0767	957.488 ± 1.6	1254.8 ± 2.3
308.15 K, x1 = 0.1791	1033.77 ± 1.6	1283.4 ± 2.3
308.15 K, x1 = 0.2783	1083.82 ± 1.6	1304.2 ± 2.4
308.15 K, x1 = 0.3996	1126.53 ± 1.7	1323.2 ± 2.4
308.15 K, x1 = 0.5198	1157 ± 1.7	1338.3 ± 2.5
308.15 K, x1 = 0.612	1175.28 ± 1.7	1347.8 ± 2.6
308.15 K, x1 = 0.6957	1189.11 ± 1.8	1355.3 ± 2.6
308.15 K, x1 = 0.7754	1200.62 ± 1.8	1362.2 ± 2.7
308.15 K, x1 = 0.8991	1216.13 ± 1.9	1371.3 ± 2.8
308.15 K, x1 = 1	1227.09 ± 2	1379 ± 2.9
313.15 K, x1 = 0.0767	952.422 ± 1.6	1231.1 ± 2.3
313.15 K, x1 = 0.1791	1028.9 ± 1.6	1263.7 ± 2.3
313.15 K, x1 = 0.2783	1079.26 ± 1.6	1286.5 ± 2.4
313.15 K, x1 = 0.3996	1122.17 ± 1.7	1309.5 ± 2.4
313.15 K, x1 = 0.5198	1152.84 ± 1.7	1324.6 ± 2.5
313.15 K, x1 = 0.612	1171.22 ± 1.7	1334 ± 2.6
313.15 K, x1 = 0.6957	1185.14 ± 1.8	1341.6 ± 2.6
313.15 K, x1 = 0.7754	1196.65 ± 1.8	1348.4 ± 2.7
313.15 K, x1 = 0.8991	1212.37 ± 1.9	1357.6 ± 2.8
313.15 K, x1 = 1	1223.3 ± 2	1365.8 ± 2.9
318.15 K, x1 = 0.0767	947.162 ± 1.6	1209 ± 2.3
318.15 K, x1 = 0.1791	1024.04 ± 1.6	1242.4 ± 2.3
318.15 K, x1 = 0.2783	1074.69 ± 1.6	1268.7 ± 2.4
318.15 K, x1 = 0.3996	1117.75 ± 1.7	1292.1 ± 2.4
318.15 K, x1 = 0.5198	1148.57 ± 1.7	1309.3 ± 2.5
318.15 K, x1 = 0.612	1167.05 ± 1.7	1319.7 ± 2.6
318.15 K, x1 = 0.6957	1181.01 ± 1.8	1327 ± 2.6
318.15 K, x1 = 0.7754	1192.68 ± 1.8	1333.4 ± 2.7
318.15 K, x1 = 0.8991	1208.44 ± 1.9	1342.7 ± 2.8
318.15 K, x1 = 1	1219.5 ± 2	1351.2 ± 2.9
323.15 K, x1 = 0.0767	941.999 ± 1.6	1185.7 ± 2.3
323.15 K, x1 = 0.1791	1019.03 ± 1.6	1222.6 ± 2.3
323.15 K, x1 = 0.2783	1069.89 ± 1.6	1250.7 ± 2.4
323.15 K, x1 = 0.3996	1113.1 ± 1.7	1276.2 ± 2.4
323.15 K, x1 = 0.5198	1144.07 ± 1.7	1294.4 ± 2.5
323.15 K, x1 = 0.612	1162.61 ± 1.7	1305.3 ± 2.6
323.15 K, x1 = 0.6957	1176.74 ± 1.8	1313 ± 2.6
323.15 K, x1 = 0.7754	1188.63 ± 1.8	1319.2 ± 2.7
323.15 K, x1 = 0.8991	1204.28 ± 1.9	1329.8 ± 2.8
323.15 K, x1 = 1	1215.42 ± 2	1338 ± 2.9

CCCCn1cc[n+](C)c1.F[P-](F)(F)(F)(F)F [1-butyl-3-methylimidazolium hexafluorophosphate] + C1CCOC1
Conditions	mass density [kg/m3]	speed of sound [m/s]
293.15 K, x1 = 0.0871	995.952 ± 1.6	1325.2 ± 2.3
293.15 K, x1 = 0.1801	1081.84 ± 1.6	1346.3 ± 2.3
293.15 K, x1 = 0.2893	1156.12 ± 1.6	1370.2 ± 2.4
293.15 K, x1 = 0.3939	1209.17 ± 1.7	1390.1 ± 2.4
293.15 K, x1 = 0.4994	1250.52 ± 1.7	1405.6 ± 2.5
293.15 K, x1 = 0.5709	1274.06 ± 1.8	1414.3 ± 2.6
293.15 K, x1 = 0.7163	1313.42 ± 1.9	1431.1 ± 2.7
293.15 K, x1 = 0.8069	1333.96 ± 2	1439.1 ± 2.7
293.15 K, x1 = 0.9012	1352.78 ± 2.1	1447.9 ± 2.8
293.15 K, x1 = 1	1370.41 ± 2.2	1454.6 ± 2.9
298.15 K, x1 = 0.0871	993.083 ± 1.6	1305.7 ± 2.3
298.15 K, x1 = 0.1801	1078.67 ± 1.6	1329.4 ± 2.3
298.15 K, x1 = 0.2893	1153.55 ± 1.6	1354.8 ± 2.4
298.15 K, x1 = 0.3939	1206.51 ± 1.7	1375.2 ± 2.4
298.15 K, x1 = 0.4994	1247.95 ± 1.7	1391.7 ± 2.5
298.15 K, x1 = 0.5709	1270.99 ± 1.8	1400.3 ± 2.6
298.15 K, x1 = 0.7163	1309.95 ± 1.9	1419.2 ± 2.7
298.15 K, x1 = 0.8069	1330.6 ± 2	1428.8 ± 2.7
298.15 K, x1 = 0.9012	1349.01 ± 2.1	1436.5 ± 2.8
298.15 K, x1 = 1	1366.26 ± 2.2	1442.3 ± 2.9
303.15 K, x1 = 0.0871	989.595 ± 1.6	1286.1 ± 2.3
303.15 K, x1 = 0.1801	1076.18 ± 1.6	1313.5 ± 2.3
303.15 K, x1 = 0.2893	1151.06 ± 1.6	1337.9 ± 2.4
303.15 K, x1 = 0.3939	1204.02 ± 1.7	1359.3 ± 2.4
303.15 K, x1 = 0.4994	1245.06 ± 1.7	1375.7 ± 2.5
303.15 K, x1 = 0.5709	1268.4 ± 1.8	1386.6 ± 2.6
303.15 K, x1 = 0.7163	1306.96 ± 1.9	1406.2 ± 2.7
303.15 K, x1 = 0.8069	1327.01 ± 2	1416.4 ± 2.7
303.15 K, x1 = 0.9012	1345.27 ± 2.1	1425.1 ± 2.8
303.15 K, x1 = 1	1362.13 ± 2.2	1430.2 ± 2.9
308.15 K, x1 = 0.0871	986.865 ± 1.6	1264.2 ± 2.3
308.15 K, x1 = 0.1801	1073.65 ± 1.6	1294.6 ± 2.3
308.15 K, x1 = 0.2893	1148.53 ± 1.6	1322.9 ± 2.4
308.15 K, x1 = 0.3939	1201.49 ± 1.7	1344.4 ± 2.4
308.15 K, x1 = 0.4994	1242.03 ± 1.7	1362.9 ± 2.5
308.15 K, x1 = 0.5709	1265.07 ± 1.8	1374.2 ± 2.6
308.15 K, x1 = 0.7163	1303.84 ± 1.9	1394.4 ± 2.7
308.15 K, x1 = 0.8069	1323.78 ± 2	1404.5 ± 2.7
308.15 K, x1 = 0.9012	1341.44 ± 2.1	1414.8 ± 2.8
308.15 K, x1 = 1	1357.86 ± 2.2	1418.4 ± 2.9
313.15 K, x1 = 0.0871	983.099 ± 1.6	1243.5 ± 2.3
313.15 K, x1 = 0.1801	1072.08 ± 1.6	1276.9 ± 2.3
313.15 K, x1 = 0.2893	1145.97 ± 1.6	1306.3 ± 2.4
313.15 K, x1 = 0.3939	1198.83 ± 1.7	1329.7 ± 2.4
313.15 K, x1 = 0.4994	1239.66 ± 1.7	1347.2 ± 2.5
313.15 K, x1 = 0.5709	1261.91 ± 1.8	1358.4 ± 2.6
313.15 K, x1 = 0.7163	1300.27 ± 1.9	1380.9 ± 2.7
313.15 K, x1 = 0.8069	1320.11 ± 2	1392.8 ± 2.7
313.15 K, x1 = 0.9012	1337.58 ± 2.1	1398.9 ± 2.8
313.15 K, x1 = 1	1353.88 ± 2.2	1406.7 ± 2.9
318.15 K, x1 = 0.0871	979.072 ± 1.6	1220.9 ± 2.3
318.15 K, x1 = 0.1801	1069.07 ± 1.6	1258.4 ± 2.3
318.15 K, x1 = 0.2893	1144.86 ± 1.6	1289.6 ± 2.4
318.15 K, x1 = 0.3939	1197.02 ± 1.7	1313.9 ± 2.4
318.15 K, x1 = 0.4994	1238.26 ± 1.7	1333 ± 2.5
318.15 K, x1 = 0.5709	1259.52 ± 1.8	1344 ± 2.6
318.15 K, x1 = 0.7163	1297.6 ± 1.9	1367.3 ± 2.7
318.15 K, x1 = 0.8069	1316.65 ± 1.9	1380.3 ± 2.7
318.15 K, x1 = 0.9012	1333.97 ± 2.1	1389.5 ± 2.8
318.15 K, x1 = 1	1349.88 ± 2.2	1395.2 ± 2.9
323.15 K, x1 = 0.0871	974.942 ± 1.7	1200.6 ± 2.3
323.15 K, x1 = 0.1801	1067.03 ± 1.6	1239.9 ± 2.3
323.15 K, x1 = 0.2893	1143.59 ± 1.7	1272.2 ± 2.4
323.15 K, x1 = 0.3939	1195.57 ± 1.7	1295.6 ± 2.4
323.15 K, x1 = 0.4994	1235.58 ± 1.7	1319.5 ± 2.5
323.15 K, x1 = 0.5709	1256.95 ± 1.8	1330.6 ± 2.5
323.15 K, x1 = 0.7163	1294.51 ± 1.9	1355.4 ± 2.7
323.15 K, x1 = 0.8069	1312.86 ± 1.9	1368.5 ± 2.7
323.15 K, x1 = 0.9012	1329.92 ± 2.1	1378.6 ± 2.8
323.15 K, x1 = 1	1345.57 ± 2.2	1384.1 ± 2.9
